Patent US20160346249A1 (priority 2012, published 2016)
Read-outs that look alike come from different tables or passages of the source.

Test: Single rising oral dose (10-150 mg IR) safety, tolerance and pharmacokinetics in healthy male volunteers
Type: in vivo, human
Conditions: human, plasma, oral; for MRT inf: read-out: MRT0-∞; for AUC(0-t): read-out: AUC0-t
Source text: Fifty (50) healthy male adult volunteers, between the ages of 19 and 43 years (mean±SD: 28±6 years) were enrolled in the study and randomized to the […] different treatments. […] The subjects were divided into panels of 10 subjects/dose group. Seven subjects in each group received the test drug, while three received an identical-looking placebo. […] The five treatments are outlined below:
The subjects were admitted to the clinic the night before dose administration and fasted from approximately 10 hour before to 4 hour after ingestion of the study capsules. Treatments were administered with 240 mL of mineral water between 08:00 and 09:00 hours. […] The assay calibration range was 5 to 2,000 ng/mL.
The values of Cmax and Tmax were the observed value for each subject. The terminal elimination rate constant λz was derived from the log-linear disposition phase of the concentration-time curve using linear least-squares regression for which the program determined the appropriate number of terminal points to calculate λz. At least three terminal plasma concentrations were used for estimating λz. The t1/2 (HL_Lambda_z) was calculated as ln 2/λz. AUC0-t and AUMC0-t were determined using the linear trapezoidal rule for each increasing concentration and the log-trapezoidal rule for descending concentrations. The AUC values from the last quantifiable time point to infinity was calculated as Ct/λz. This value was added to AUC0-t to obtain AUC0-∞. […] Oral clearance was calculated as Dose/AUC0-∞. The 90% confidence intervals were calculated for all of the variables.
SAS, version 8.2, was used for the analysis.

Clc1ccc([C@]23CNC[C@H]2C3)cc1Cl [amitifadine, (+)-1-(3,4-dichlorophenyl)-3-azabicyclo[3.1.0]hexane]
half-life (10 mg, individual subject, read-out: t1/2 (converted)): 3.47 h
MRT inf (25 mg, individual subject): 4.81 h
AUC(0-inf) (50 mg, individual subject): 1690 ng·h/mL
MRT inf (50 mg, individual subject): 5.18 h
half-life (50 mg, individual subject, read-out: t1/2 (converted)): 3.25 h
AUC(0-inf) (100 mg, individual subject): 5010 ng·h/mL
AUC(0-t) (100 mg, individual subject): 4960 ng·h/mL
MRT inf (100 mg, individual subject): 4.92 h
half-life (100 mg, individual subject, read-out: t1/2 (converted)): 3.94 h
AUC(0-inf) (150 mg, individual subject): 7300 ng·h/mL
AUC(0-t) (150 mg, individual subject): 7210 ng·h/mL
MRT inf (150 mg, individual subject): 5.67 h
AUC(0-inf) (male, 10 mg, Geometric Mean): 418 ng·h/mL
AUC(0-t) (male, 10 mg, Geometric Mean): 377 ng·h/mL
MRT inf (male, 10 mg, Geometric Mean): 5.21 h
Tmax (male, 10 mg, Geometric Mean, read-out: Tmax): 0.696 h
half-life (male, 10 mg, Geometric Mean, read-out: t1/2 (converted)): 3.4 h
AUC(0-inf) (male, 10 mg, Mean (n = 7)): 429 ng·h/mL
AUC(0-t) (male, 10 mg, Mean (n = 7)): 387 ng·h/mL
MRT inf (male, 10 mg, Mean (n = 7)): 5.23 h
half-life (male, 10 mg, Mean (n = 7), read-out: t1/2 (converted)): 3.42 h
AUC(0-inf) (male, 10 mg, Median): 454 ng·h/mL
AUC(0-t) (male, 10 mg, Median): 409 ng·h/mL
MRT inf (male, 10 mg, Median): 5.35 h
half-life (male, 10 mg, Median, read-out: t1/2 (converted)): 3.47 h
AUC(0-inf) (male, 25 mg, Geometric Mean): 1430 ng·h/mL
AUC(0-t) (male, 25 mg, Geometric Mean): 1340 ng·h/mL
MRT inf (male, 25 mg, Geometric Mean): 4.79 h
Tmax (male, 25 mg, Geometric Mean, read-out: Tmax): 0.863 h
half-life (male, 25 mg, Geometric Mean, read-out: t1/2 (converted)): 2.97 h
AUC(0-inf) (male, 25 mg, Mean (n = 7)): 1470 ng·h/mL
AUC(0-t) (male, 25 mg, Mean (n = 7)): 1390 ng·h/mL
MRT inf (male, 25 mg, Mean (n = 7)): 4.83 h
half-life (male, 25 mg, Mean (n = 7), read-out: t1/2 (converted)): 3.15 h
AUC(0-inf) (male, 25 mg, Median): 1300 ng·h/mL
AUC(0-t) (male, 25 mg, Median): 1190 ng·h/mL
MRT inf (male, 25 mg, Median): 4.65 h
half-life (male, 25 mg, Median, read-out: t1/2 (converted)): 3 h
AUC(0-inf) (male, 50 mg, Geometric Mean): 2420 ng·h/mL
AUC(0-t) (male, 50 mg, Geometric Mean): 2320 ng·h/mL
MRT inf (male, 50 mg, Geometric Mean): 5.23 h
Tmax (male, 50 mg, Geometric Mean, read-out: Tmax): 1.02 h
half-life (male, 50 mg, Geometric Mean, read-out: t1/2 (converted)): 3.65 h
AUC(0-inf) (male, 50 mg, Mean (n = 7)): 2490 ng·h/mL
AUC(0-t) (male, 50 mg, Mean (n = 7)): 2390 ng·h/mL
MRT inf (male, 50 mg, Mean (n = 7)): 5.25 h
half-life (male, 50 mg, Mean (n = 7), read-out: t1/2 (converted)): 3.68 h
AUC(0-inf) (male, 50 mg, Median): 2200 ng·h/mL
AUC(0-t) (male, 50 mg, Median): 2120 ng·h/mL
MRT inf (male, 50 mg, Median): 5.29 h
Tmax (male, 50 mg, Median, read-out: Tmax): 1 h
half-life (male, 50 mg, Median, read-out: t1/2 (converted)): 3.62 h
AUC(0-inf) (male, 100 mg, Geometric Mean): 4850 ng·h/mL
AUC(0-t) (male, 100 mg, Geometric Mean): 4780 ng·h/mL
MRT inf (male, 100 mg, Geometric Mean): 5.7 h
half-life (male, 100 mg, Geometric Mean, read-out: t1/2 (converted)): 4.15 h
AUC(0-inf) (male, 100 mg, Mean (n = 7)): 4880 ng·h/mL
AUC(0-t) (male, 100 mg, Mean (n = 7)): 4810 ng·h/mL
MRT inf (male, 100 mg, Mean (n = 7)): 5.75 h
half-life (male, 100 mg, Mean (n = 7), read-out: t1/2 (converted)): 4.15 h
AUC(0-inf) (male, 100 mg, Median): 4820 ng·h/mL
AUC(0-t) (male, 100 mg, Median): 4730 ng·h/mL
MRT inf (male, 100 mg, Median): 5.69 h
half-life (male, 100 mg, Median, read-out: t1/2 (converted)): 4.22 h
AUC(0-inf) (male, 150 mg, Geometric Mean): 8490 ng·h/mL
AUC(0-t) (male, 150 mg, Geometric Mean): 8360 ng·h/mL
MRT inf (male, 150 mg, Geometric Mean): 5.97 h
Tmax (male, 150 mg, Geometric Mean, read-out: Tmax): 1.63 h
half-life (male, 150 mg, Geometric Mean, read-out: t1/2 (converted)): 3.64 h
AUC(0-inf) (male, 150 mg, Mean (n = 7)): 8620 ng·h/mL
AUC(0-t) (male, 150 mg, Mean (n = 7)): 8510 ng·h/mL
MRT inf (male, 150 mg, Mean (n = 7)): 6.04 h
half-life (male, 150 mg, Mean (n = 7), read-out: t1/2 (converted)): 3.71 h
AUC(0-inf) (male, 150 mg, Median): 8010 ng·h/mL
AUC(0-t) (male, 150 mg, Median): 7940 ng·h/mL
MRT inf (male, 150 mg, Median): 5.87 h
half-life (male, 150 mg, Median, read-out: t1/2 (converted)): 3.68 h
half-life (male, 10 to 150 mg, read-out: elimination half-life): 3 to 4 h
Tmax (male, 10 to 150 mg, read-out: mean Tmax): 0.7 to 1.75 h
MRT (male, 10 to 150 mg, read-out: mean residence time): 5 to 6 h
